# Source: PMC11100219, “Dual-function antimicrobial-antibiofilm peptide hybrid to tackle biofilm-forming Staphylococcus epidermidis” (Annals of Clinical Microbiology and Antimicrobials, 2024)
# Residues, ends and D or L forms follow the SMILES beside them.
# Test system: S. epidermidis biofilm formation genes (ica, agr)
# Assay: Transcriptional analysis, real-time RT-PCR
# Assay type: cell-based, Staphylococcus epidermidis
# Details: at MBIC50, 24 h
# Protocol: The expression level of S. epidermidis biofilm formation gene was investigated using a real-time reverse transcription-polymerase chain reaction. In brief, total RNA of S. epidermidis biofilm, both untreated and treated with BiF2_5K7K (at MBIC50 for 24 h), was extracted by a RNeasy PowerBiofilm Kit (Qiagen, USA) and immediately reverse transcribed to cDNA by iScript reserve transcription supermix (Biolabs, UK). RNAprotect Bacteria Reagent (Qiagen, USA) was used to preserve RNA during isolation. Remaining DNA was removed by treatment with DnaseI (Biolabs, UK). Real-time RT-PCR was done in duplicate using iTaq Universal SYBR Green Supermix (Bio-Rad, USA) with 5 ng of cDNA and […] of forward and reverse primers (Table S1) using a CFX96 Real-Time PCR Detection System (Bio-Rad, USA). The cycling condition was started with an initial denaturation at 95°C for 2 min, followed by 50 amplification cycles consisting of 95°C for 30 s, 56°C for 1 min, and 72°C for 1 min. Subsequently, a melting curve was generated from 65°C to 95°C at intervals of 1 s at the end of each run. To analyse the relative quantitation of gene expression, 2^− ΔΔCt method was used, and 16S ribosomal subunit (rRNA) was served as the reference or housekeeping gene.
smiles,measurement,setting,value
CC[C@H](C)[C@H](NC(=O)[C@H](CCCCN)NC(=O)[C@H](CCCCN)NC(=O)[C@@H](NC(=O)[C@H](CC(C)C)NC(=O)[C@@H](N)Cc1ccccc1)C(C)C)C(=O)N[C@@H](CCCCN)C(=O)N[C@@H](CCCCN)C(=O)N[C@H](C(=O)N[C@@H](CC(C)C)C(=O)N[C@@H](CCCNC(=N)N)C(=O)N[C@@H](CCCNC(=N)N)C(N)=O)[C@@H](C)CC [BiF2_5K7K] (H-FLVKKIKKILRR-NH2; N-terminus assumed),agrC and agrA gene expression,,neither agrC nor agrA gene expression changed at all
same,expression of quorum-sensing genes agrD and agrB vs untreated control,,reduced
same,levels of icaC or icaR genes,,no alteration
same,"relative expression level of icaA, icaD and icaB genes","2^-ΔΔCt, 16S rRNA reference, significantly upregulated",greater than 1
